According to paper PMC6609467 (ChemMedChem, 2019):

Key:
NDM-1 [1] = target: T1, NDM-1 (Klebsiella pneumoniae, UniProt C7C422); test: Inhibition of NDM-1 catalyzed meropenem hydrolysis; assay type: biochemical
ZnZn-NDM-1 = ZnZn-NDM-1 (Klebsiella pneumoniae, UniProt C7C422); test: Equilibrium dialysis, Zn; assay type: binding; details: for Zn(II) removal from NDM-1 in equilibrium dialysis: NDM-1 8 μM, compound 16 - 128 μM; for Zn(II) retained by NDM-1 at highest tested concentration: 128 μM compound; for Inhibition mechanism against NDM-1: from equilibrium dialysis and UV-vis of CoCo-NDM-1; for Zn(II) removal from NDM-1 at 32 μM compound: Figure S2
Chain of ZnZn-NDM-1 (C7C422 29-270, looked up): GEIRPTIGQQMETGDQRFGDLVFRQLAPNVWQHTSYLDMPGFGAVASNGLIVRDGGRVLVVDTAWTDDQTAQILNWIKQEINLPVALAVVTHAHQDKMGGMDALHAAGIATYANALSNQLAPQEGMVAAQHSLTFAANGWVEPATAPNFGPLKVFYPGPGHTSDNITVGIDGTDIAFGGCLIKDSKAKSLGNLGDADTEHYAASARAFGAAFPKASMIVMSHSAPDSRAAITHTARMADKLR

NDM-1 [2] = target: T1, NDM-1; test: Inhibition of NDM-1 catalyzed Fluorocillin hydrolysis; assay type: biochemical
VIM-2 = VIM-2 (Escherichia coli, UniProt Q5U7L7); test: Inhibition of VIM-2 catalyzed Fluorocillin hydrolysis; assay type: biochemical
IMP-1 = IMP-1 (Serratia marcescens, UniProt P52699); test: Inhibition of IMP-1 catalyzed Fluorocillin hydrolysis; assay type: biochemical
Chain of IMP-1 (P52699 19-246, species assumed): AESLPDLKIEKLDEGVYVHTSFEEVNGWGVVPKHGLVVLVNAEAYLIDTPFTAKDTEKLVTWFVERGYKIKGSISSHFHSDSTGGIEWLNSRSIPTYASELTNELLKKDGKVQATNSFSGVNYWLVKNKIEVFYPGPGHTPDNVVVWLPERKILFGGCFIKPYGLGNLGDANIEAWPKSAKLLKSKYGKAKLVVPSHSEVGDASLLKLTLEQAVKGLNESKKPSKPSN

NDM-1 [3] = target: T1, NDM-1; details: meropenem as substrate of NDM-1
NDM-1 [4] = target: T1, NDM-1; details: read-out: KM, NDM-1; Fluorocillin as substrate; ref [28], [43]; cited from earlier work

T1 sequence (C7C422 29-270 limits assumed): as the sequence (C7C422 29-270, looked up) above

For COc1cccc(-c2cc(CP(=O)(O)O)nc(C(=O)O)c2)c1 [Compound 18c, 4-(3-Methoxyphenyl)-6-(phosphonomethyl)picolinic acid], the IC50 (NDM-1 [1]) was 420 ± 20 nM.

In the case of O=C(O)c1cccc(C(=O)O)n1 [DPA, dipicolinic acid, reference compound], the “Zn(II) removal from NDM-1 in equilibrium dialysis” value (ZnZn-NDM-1) is reported as “significantly reduced”, the IC50 (NDM-1 [2]) is reported as 330 ± 40 nM and the IC50 (VIM-2) is reported as 2340 ± 40 nM.

With O=C(O)c1cccc(CP(=O)(O)O)n1 [Compound 2, 6-(Phosphonomethyl)picolinic acid] the “Zn(II) retained by NDM-1 at highest tested concentration” value (“Zn(II) retained” for short) (ZnZn-NDM-1) was “less than one equivalent was retained”, the “Inhibition mechanism against NDM-1” value (ZnZn-NDM-1) was “primarily via Zn(II) removal” and the IC50 (NDM-1 [2]) was 68 ± 2 nM. It also gave an IC50 (IMP-1) of 630 ± 10 nM and an IC50 (VIM-2) of 620 ± 10 nM.

Nc1ccccc1-c1cc(CP(=O)(O)O)nc(C(=O)O)c1 [Compound 18j, 4-(2-Aminophenyl)-6-(phosphonomethyl)picolinic acid] showed an IC50 (NDM-1 [1]) of 240 ± 10 nM.

O=C(O)c1cccc(P(=O)(O)O)n1 [Compound 1, 6-Phosphonopicolinic acid] showed an IC50 (NDM-1 [2]) of 64 ± 1 nM, an IC50 (IMP-1) of 850 ± 60 nM and an IC50 (VIM-2) of 850 ± 20 nM.

For O=C(O)c1cc(-c2ccccc2O)cc(CP(=O)(O)O)n1 [Compound 18g, 4-(2-Hydroxyphenyl)-6-(phosphonomethyl)picolinic acid], the IC50 (NDM-1 [1]) was 280 ± 10 nM.

With O=C(O)c1cccc(CS(=O)(=O)O)n1 [Compound 5, 6-(Sulfomethyl)picolinic acid] the IC50 (NDM-1 [1]) was over 10000 nM.

C[C@@H](O)[C@H]1C(=O)N2C(C(=O)O)=C(S[C@@H]3CN[C@H](C(=O)N(C)C)C3)[C@H](C)[C@H]12 [Meropenem, meropenem] gave a kcat (NDM-1 [3]) of 15.3 ± 0.4 s⁻¹.

CS(=O)(=O)Nc1cccc(C(=O)O)n1 [Compound 7, 6-(Methylsulfonamido)picolinic acid] showed an IC50 (NDM-1 [1]) of over 10000 nM.

Molecule O=C(O)c1cc(-c2ccccc2Cl)cc(CP(=O)(O)O)n1 [Compound 18m, 4-(2-Chlorophenyl)-6-(phosphonomethyl)picolinic acid] has an IC50 (NDM-1 [1]) of 950 ± 50 nM.

In the case of O=C(O)c1cc(-c2ccc(O)cc2)cc(CP(=O)(O)O)n1 [Compound 18e, 4-(4-Hydroxyphenyl)-6-(phosphonomethyl)picolinic acid], the IC50 (NDM-1 [1]) is reported as 480 ± 10 nM.

Molecule O=C(O)c1cc(-c2ccccc2)cc(CP(=O)(O)O)n1 [Compound 18a, 4-Phenyl-6-(phosphonomethyl)picolinic acid] has an IC50 (NDM-1 [1]) of 410 ± 20 nM.

For COc1ccc(-c2cc(CP(=O)(O)O)nc(C(=O)O)c2)cc1 [Compound 18b, 4-(4-Methoxyphenyl)-6-(phosphonomethyl)picolinic acid], the “Zn(II) removal from NDM-1 at 32 μM compound” value (ZnZn-NDM-1) was “only slight Zn(II) removal”, the “Zn(II) retained” value (ZnZn-NDM-1) was “one equivalent of Zn(II) was retained” and the “Zn(II) removal from NDM-1 in equilibrium dialysis” value (ZnZn-NDM-1) was “reduced tendency to remove Zn(II)”. For the same molecule, the IC50 (NDM-1 [1]) was 200 ± 10 nM.

For O=C(O)c1cc(-c2cccc(O)c2)cc(CP(=O)(O)O)n1 [Compound 18f, 4-(3-Hydroxyphenyl)-6-(phosphonomethyl)picolinic acid], the IC50 (NDM-1 [1]) was 280 ± 10 nM.

With CN(Cc1cccc(C(=O)O)n1)S(C)(=O)=O [Compound 8, 6-((N-Methylmethylsulfonamido)methyl)picolinic acid] the IC50 (NDM-1 [1]) was over 10000 nM.

O=C(O)c1cc(-c2cccc(Cl)c2)cc(CP(=O)(O)O)n1 [Compound 18l, 4-(3-Chlorophenyl)-6-(phosphonomethyl)picolinic acid] gave an IC50 (NDM-1 [1]) of 1290 ± 70 nM.

Molecule O=C(O)c1cc(-c2ccc(Cl)cc2)cc(CP(=O)(O)O)n1 [Compound 18k, 4-(4-Chlorophenyl)-6-(phosphonomethyl)picolinic acid] has an IC50 (NDM-1 [1]) of 400 ± 10 nM.

O=C(O)c1cccc(-c2nccs2)n1 [Compound 9, 6-(Thiazol-2-yl)picolinic acid] gave an IC50 (NDM-1 [1]) of over 10000 nM.

In the case of Nc1cccc(-c2cc(CP(=O)(O)O)nc(C(=O)O)c2)c1 [Compound 18i, 4-(3-Aminophenyl)-6-(phosphonomethyl)picolinic acid], the “Zn(II) removal from NDM-1 at 32 μM compound” value (ZnZn-NDM-1) is reported as “only slight Zn(II) removal”, the “Zn(II) retained” value (ZnZn-NDM-1) is reported as “one equivalent of Zn(II) was retained” and the “Zn(II) removal from NDM-1 in equilibrium dialysis” value (ZnZn-NDM-1) is reported as “reduced tendency to remove Zn(II)”. For the same molecule, the IC50 (NDM-1 [1]) was 400 ± 20 nM.

For C[C@H](CS)C(=O)N1CCC[C@H]1C(=O)O [L-captopril, reference compound], the “Zn(II) removal from NDM-1 in equilibrium dialysis” value (ZnZn-NDM-1) was “did not show any evidence of Zn(II) removal”.

With O=C(O)c1cccc(-c2nnn[nH]2)n1 [Compound 4, 6-(1H-Tetrazol-5-yl)picolinic acid] the “Zn(II) removal from NDM-1 in equilibrium dialysis” value (ZnZn-NDM-1) was “removing only small amounts of Zn(II)”, the “Inhibition mechanism against NDM-1” value (ZnZn-NDM-1) was “mainly via formation of a ternary complex” and the IC50 (NDM-1 [2]) was 2190 ± 130 nM. It also gave an IC50 (NDM-1 [1]) of 7000 ± 500 nM, a Ki (NDM-1 [1]) of 2200 ± 500 nM and an IC50 (IMP-1) of 22000 ± 1000 nM. The IC50 (VIM-2) was 27000 ± 2000 nM.

In the case of Nc1ccc(-c2cc(CP(=O)(O)O)nc(C(=O)O)c2)cc1 [Compound 18h, 4-(4-Aminophenyl)-6-(phosphonomethyl)picolinic acid], the IC50 (NDM-1 [1]) is reported as 300 ± 10 nM.

For O=C(O)Cc1cccc(C(=O)O)n1 [Compound 3, 6-(Carboxymethyl)picolinic acid], the “Zn(II) removal from NDM-1 in equilibrium dialysis” value (ZnZn-NDM-1) was “removing only small amounts of Zn(II)”, the IC50 (NDM-1 [2]) was 2050 ± 90 nM and the IC50 (NDM-1 [1]) was 7700 ± 600 nM. It also gave an IC50 (IMP-1) of 59000 ± 5000 nM and an IC50 (VIM-2) of 35000 ± 1000 nM.

With CS(=O)(=O)Cc1cccc(C(=O)O)n1 [Compound 6, 6-((Methylsulfonyl)methyl)picolinic acid] the IC50 (NDM-1 [1]) was over 10000 nM.

For Fluorocillin, the Km (NDM-1 [4]) is listed as 0.46 µM.

Work on O=C(O)c1cccc(-c2ncco2)n1 [Compound 10, 6-(Oxazol-2-yl)picolinic acid] yielded an IC50 (NDM-1 [1]) of over 10000 nM.

COc1ccccc1-c1cc(CP(=O)(O)O)nc(C(=O)O)c1 [Compound 18d, 4-(2-Methoxyphenyl)-6-(phosphonomethyl)picolinic acid] showed an IC50 (NDM-1 [1]) of 300 ± 10 nM.
